Source: publication PMC7044277 (Nature Communications, 2020)
Values joined by “and” are separate entries in the source; they are usually repeats but may differ in a detail not shown here. Equal entries are not always repeated.

Experiments:
5HT1E = 5HT1E (Homo sapiens, UniProt P28566); test: β-arrestin2 recruitment (Tango); assay type: cell-based; settings: Fig_S10i; note: reference of the scale not given here
DRD2 F1103.28A = DRD2 F1103.28A (Homo sapiens, UniProt P14416, F110A); test: β-arrestin2 recruitment (Tango), mutant; assay type: cell-based; set-up: expressed in transfected cells; host or cells: HEK293T (ATCC CRL-11268)
Chain of DRD2 F1103.28A (P14416 whole entry F110A): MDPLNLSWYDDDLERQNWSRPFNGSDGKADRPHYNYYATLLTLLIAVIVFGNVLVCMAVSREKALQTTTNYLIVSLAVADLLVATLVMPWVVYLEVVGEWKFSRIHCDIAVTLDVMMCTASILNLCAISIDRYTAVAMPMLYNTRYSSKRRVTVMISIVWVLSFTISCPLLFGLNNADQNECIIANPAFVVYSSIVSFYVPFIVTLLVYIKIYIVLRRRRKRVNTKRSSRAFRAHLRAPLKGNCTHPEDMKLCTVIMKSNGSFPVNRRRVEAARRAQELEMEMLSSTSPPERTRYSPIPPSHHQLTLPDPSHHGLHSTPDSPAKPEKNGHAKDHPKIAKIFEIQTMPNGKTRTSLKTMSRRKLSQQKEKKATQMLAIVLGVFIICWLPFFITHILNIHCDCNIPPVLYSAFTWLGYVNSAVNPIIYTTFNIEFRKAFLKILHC

[1] = test system: serotonin receptor of Fig_S10h (subtype not given); test: β-arrestin2 recruitment (Tango), agonist activity, source data Fig_S10h; assay type: cell-based, human; settings: drug alone
5HT7A = biological target: T1, 5HT7A (Homo sapiens, UniProt P34969); test: β-arrestin2 recruitment (Tango); assay type: cell-based; settings: for β-arrestin2 recruitment response, replicate points of concentration-response curve: Fig_S10q, agonist mode
T1 construct: expressed in transfected cells; host or cells: HTLA cells expressing TEV-fused β-arrestin2
T1 sequence (P34969 1-445 isoform P34969-2): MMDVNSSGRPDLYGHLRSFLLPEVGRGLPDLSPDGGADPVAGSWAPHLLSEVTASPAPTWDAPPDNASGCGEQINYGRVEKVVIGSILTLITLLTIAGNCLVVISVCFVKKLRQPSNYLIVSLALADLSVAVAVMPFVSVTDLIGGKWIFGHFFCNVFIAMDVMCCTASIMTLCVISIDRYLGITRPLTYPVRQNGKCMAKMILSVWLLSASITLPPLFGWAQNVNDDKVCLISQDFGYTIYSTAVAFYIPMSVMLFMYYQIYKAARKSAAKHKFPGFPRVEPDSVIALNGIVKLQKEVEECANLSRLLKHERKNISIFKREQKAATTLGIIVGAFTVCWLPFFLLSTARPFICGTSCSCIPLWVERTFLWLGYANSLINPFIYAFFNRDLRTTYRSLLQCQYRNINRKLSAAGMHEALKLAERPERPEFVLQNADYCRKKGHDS

DRD4 (D4.4 variant) = biological target: T2, DRD4 (D4.4 variant) (Homo sapiens, UniProt P21917); test: Gαi/o-mediated cAMP inhibition (GloSensor); assay type: cell-based; settings: DRD4; agonist, cAMP inhibition; read-out: EC50 ± SEM
T2 sequence (P21917 1-419): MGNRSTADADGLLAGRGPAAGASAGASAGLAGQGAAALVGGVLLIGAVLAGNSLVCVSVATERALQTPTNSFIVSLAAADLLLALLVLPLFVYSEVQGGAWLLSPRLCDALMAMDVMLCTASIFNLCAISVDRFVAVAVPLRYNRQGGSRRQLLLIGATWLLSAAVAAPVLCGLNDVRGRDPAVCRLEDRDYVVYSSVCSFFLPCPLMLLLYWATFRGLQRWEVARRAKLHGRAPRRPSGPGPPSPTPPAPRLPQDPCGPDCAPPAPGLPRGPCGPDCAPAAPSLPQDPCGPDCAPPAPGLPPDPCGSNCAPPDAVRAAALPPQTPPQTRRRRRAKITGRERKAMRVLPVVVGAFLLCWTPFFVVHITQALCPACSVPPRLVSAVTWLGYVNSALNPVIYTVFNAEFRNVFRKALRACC

DRD2 F1103.28L = biological target: T3, DRD2 F1103.28L (Homo sapiens, UniProt P14416, F110L); test: Gαi/o-mediated cAMP inhibition (GloSensor), mutant; assay type: cell-based; settings: DRD2 F1103.28L (b138 head prints DRD2 F1063.28L)
T3 construct: expressed in transfected cells; host or cells: HEK293T (ATCC CRL-11268)
T3 sequence (P14416 whole entry F110L): as the sequence (P14416 whole entry F110A) above, with A110L counted along it

Chain of 5HT1E (P28566 whole entry): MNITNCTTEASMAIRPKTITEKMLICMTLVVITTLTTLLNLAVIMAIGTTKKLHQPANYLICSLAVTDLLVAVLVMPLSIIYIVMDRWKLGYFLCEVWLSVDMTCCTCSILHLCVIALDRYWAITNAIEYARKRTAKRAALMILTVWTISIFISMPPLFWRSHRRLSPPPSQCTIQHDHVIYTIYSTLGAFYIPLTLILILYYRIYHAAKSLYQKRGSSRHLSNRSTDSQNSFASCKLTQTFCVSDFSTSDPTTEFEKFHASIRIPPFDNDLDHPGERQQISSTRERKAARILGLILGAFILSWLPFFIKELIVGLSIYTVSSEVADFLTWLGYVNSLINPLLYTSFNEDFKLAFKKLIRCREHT

With `CCOc1cccc2cc([C@H](C)NCC3(O)CCCCC3)oc12` [O4SE6] the “β-arrestin2 recruitment response, agonist mode (single replicate values)” value (5HT1E; Log[Drug] -8) was -7.977 and -8.538 and -9.216 and -19.7126 and -7.765 and -29.5609 and -0.3541 and 4.202 and -14.1998, the “β-arrestin2 recruitment response, agonist mode (single replicate values)” value (5HT1E; Log[Drug] -8.52) was -8.057 and -8.967 and 2.216 and 9.159 and -4.385 and 8.583 and -6.33 and -6.852 and -26.8276 and the “β-arrestin2 recruitment response, agonist mode (single replicate values)” value (5HT1E; Log[Drug] -9) was 0.8147 and -7.106 and -2.942 and -13.4536 and -20.6306 and -0.4912 and -5.667 and -8.764 and -8.801. For the same compound, the “β-arrestin2 recruitment response, agonist mode (single replicate values)” value (5HT1E; Log[Drug] -9.52) was -5.189 and -0.1954 and -0.3872 and -6.065 and -25.1931 and 34.39 and 6.445 and -12.4444 and -9.8607, the “β-arrestin2 recruitment response, agonist mode (single replicate values)” value (5HT1E; Log[Drug] -10) was 5.7233 and -7.338 and -6.569 and -5.352 and 52.7977 and 2.248 and -7.089 and -2.873 and 1.262 and the “β-arrestin2 recruitment response, agonist mode (single replicate values)” value (5HT1E; Log[Drug] -10.52) was -5.082 and -6.296 and 10.3259 and -3.566 and -12.7533 and -11.9533 and -23.7764 and -18.6704 and -6.074. The “β-arrestin2 recruitment response, agonist mode (single replicate values)” value (5HT1E; Log[Drug] -11) was -1.572 and -7.387 and 4.824 and -17.5471 and -8.254 and 2.626 and -10.6703 and -5.6779 and -4.661, the EC50 (DRD2 F1103.28A) was > 10 µM and the “response, single replicates of the concentration-response curve” value (shortened to “response, single replicates”) ([1]; Log[Drug] -6.52) was -7.994. The “response, single replicates” value ([1]; Log[Drug] -7) was -2.807 and 4.395 and 8.664 and 27.4134 and 13.2513 and 15.6474 and 13.1242 and -2.417 and -10.8222, the “response, single replicates” value ([1]; Log[Drug] -7.52) was 4.715 and -8.828 and -5.606 and 8.395 and 8.216 and 0.5126 and 3.51 and 4.446 and -3.1317 and the “response, single replicates” value ([1]; Log[Drug] -8) was 0.3826 and 12.2654 and 8.146 and 2.179 and 0.2337 and 9.5034 and -12.0593 and 26.3744 and -3.5174. For the same compound, the “response, single replicates” value ([1]; Log[Drug] -8.52) was -10.0653 and -1.2658 and 52.2148 and 23.8014 and -4.094 and -12.033 and 16.826 and 7.508 and 15.8147, the “response, single replicates” value ([1]; Log[Drug] -9) was 1.557 and 9.933 and -1.226 and 2.422 and 13.6662 and 4.675 and -4.947 and 1.153 and 3.825 and the “response, single replicates” value ([1]; Log[Drug] -9.52) was -5.148 and -10.9982 and -7.97 and 11.3845 and 16.9421 and 5.655 and -4.275 and -6.8476 and 18.2512. For the same compound, the “response, single replicates” value ([1]; Log[Drug] -10) was 15.0958 and 7.486 and 10.8542 and 5.527 and 29.223 and 0.999 and -10.921 and 11.0828 and -0.8457, the “response, single replicates” value ([1]; Log[Drug] -10.52) was -0.8745 and -6.646 and -1.622 and 20.5398 and 42.3766 and 10.7909 and -7.069 and -20.3001 and 10.2879 and the “response, single replicates” value ([1]; Log[Drug] -11) was -11.3698 and 19.5825 and 1.391 and 36.9549 and 6.363 and -10.581 and 12.6585 and -12.9389 and 3.331. The “response, single replicates” value ([1]; Log[Drug] -11.52) was -4.741 and 3.94 and 12.3959 and 19.2666 and -9.551 and -8.707 and 10.8288 and -0.4553 and -7.722, the “response, single replicates” value ([1]; Log[Drug] -12) was -3.8669 and -1.214 and 2.909 and 15.2183 and 14.2098 and -8.421 and -4.75 and -12.1063 and 12.6538 and the “concentration at which the receptor is activated” value (5HT7A; 5HT7A, agonist activity only at high concentrations) was “over 1 μM”. The “β-arrestin2 recruitment response, replicate points of concentration-response curve” value (5HT7A; Log[Drug] -8.52) was -17.0653 and -8.2658 and 45.2148 and -20.2418 and -21.803 and -0.7194 and -2.896 and -5.6 and 11.1273 and 4.271 and -5.097 and 41.8171, the “β-arrestin2 recruitment response, replicate points of concentration-response curve” value (5HT7A; Log[Drug] -9) was -5.443 and 2.933 and -8.226 and -2.556 and -7.477 and 46.4452 and 15.6099 and 24.9983 and 34.962 and -18.0177 and 28.5192 and 18.5487 and the “β-arrestin2 recruitment response, replicate points of concentration-response curve” value (5HT7A; Log[Drug] -9.52) was -12.1477 and -17.9982 and -14.9702 and 11.6094 and 28.1779 and -35.8001 and 6.565 and -15.7686 and -5.626 and -8.555 and 44.6962 and -16.9086. The “β-arrestin2 recruitment response, replicate points of concentration-response curve” value (5HT7A; Log[Drug] -10) was 8.096 and 0.4862 and 3.854 and 5.12 and -39.6418 and 11.9538 and 0.1785 and 14.2612 and 32.5752 and 35.9646 and 2.796 and -2.0885, the “β-arrestin2 recruitment response, replicate points of concentration-response curve” value (5HT7A; Log[Drug] -10.52) was -7.874 and -13.6459 and -8.622 and -2.931 and 11.0507 and -27.4126 and -0.1587 and -15.0413 and -19.8744 and -43.7994 and 23.1032 and 11.941 and the “β-arrestin2 recruitment response, replicate points of concentration-response curve” value (5HT7A; Log[Drug] -11) was -18.3698 and 12.5825 and -5.609 and -19.6985 and -4.821 and 50.3406 and -7.299 and -5.302 and 7.068 and 22.7847 and 5.345 and 29.9587. For the same compound, the “β-arrestin2 recruitment response, replicate points of concentration-response curve” value (5HT7A; Log[Drug] -11.52) was -11.7405 and -3.06 and 5.3959 and -7.492 and 32.3027 and 44.3713 and -10.4331 and 15.1471 and 38.5521 and -11.882 and -21.4277 and -18.6431, the “β-arrestin2 recruitment response, replicate points of concentration-response curve” value (5HT7A; Log[Drug] -12) was -10.8669 and -8.214 and -4.091 and -12.7879 and 18.5659 and 87.5029 and 6.479 and 24.6612 and 1.765 and 32.6018 and 45.9115 and -9.546 and the EC50 (DRD4 (D4.4 variant)) was > 10 µM. The EC50 (DRD2 F1103.28L) was > 10 µM.
